Experimental data: article PMC3388351, “Pseudolaric Acid B Induces Caspase-Dependent and Caspase-Independent Apoptosis in U87 Glioblastoma Cells” (Evidence-based Complementary and Alternative Medicine : eCAM, 2012)
Blank lines part the entries; values can stand above or below the compound they belong to.

Experiments:
U87 glioblastoma cells [1] = assay: Cell viability by MTT assay; assay type: cell-based; settings: 24 h; for IC50: read-out: IC50, growth inhibition of U87 glioblastoma cells
Procedure: U87 glioblastoma cells were obtained from American Type Culture Collection (ATCC, USA) and maintained in Dulbecco's Modified Eagle's Medium (DMEM) supplemented with 10% fatal bovine serum (FBS) in 5% CO2 at 37°C. Cells were treated with various concentrations of PLAB dissolved in DMSO with a final DMSO concentration of 1% or with DMSO alone for 24 h. DMSO-treated cells were used as control.
Cell viability was assessed by MTT assay and live/dead assay as described by us previously. Briefly U87 cells were treated with various concentrations of PLAB (1 to 100 μM) or Doxorubicin (0.25 to 20 μM) for 24 h. Following treatment, the MTT reagent was added (500 μg/mL) and cells were further incubated at 37°C for 4 h. Subsequently 150 μL DMSO was added to dissolve farmazan crystals and absorbance was measured at 570 nm in a microplate reader (Thermo Scientific). Results were expressed as the percentage of MTT reduction, assuming that the absorbance of control cells was 100%.

U87 glioblastoma cells [2] = assay: Flow cytometry analysis of apoptosis (Annexin V/PI); assay type: cell-based; settings: 24 h, in % (unit assumed)
Procedure: U87 cells were treated with 5 and 10 μM PLAB in the presence or absence of z-VAD-fmk and PFTα for 24 h. After treatment, both adherent and floating cells were collected, washed with PBS, and resuspended in 200 μL of binding buffer containing 5 μL Annexin V and put in the dark for 10 min according to the kit instructions (Beyotime, Shanghai, China). After incubation, cells were labeled with 10 μL PI and samples were immediately analyzed by flow cytometry (Beckman Coulter, Epics XL).

[3] = system: p53, Bcl-2, Bax, Caspase-3, PARP, cytochrome c, AIF in U87 glioblastoma cells; assay: Western blot of apoptosis regulators; assay type: cell-based; settings: 24 h
Procedure: (§1) After drug treatment, adherent and floating cells were collected and proteins were isolated as described previously. Nuclear and cytosolic proteins were extracted using cytosolic and nuclear extraction kit (Keygen, China) according to the manufacturer's instructions. 40 μg proteins were electrophoresed on 10% SDS-PAGE and transferred to PVDF membrane. After blocking with 5% (w/v) nonfat milk and washing with Tris-buffered saline-Tween solution (TBST), membranes were incubated overnight at 4°C with p53 (1 : 1000), BCL-2 (1 : 1000), Bax (1 : 300), Cytochrome c (1 : 200), Caspase-3 (1 : 500), Tubulin (1 : 500), Cyclin B1 (1 : 300), Cdc2 (1 : 300), β-actin (1 : 400), and AIF (1 : 1000) antibodies, respectively. After washing, the blots were incubated with horseradish peroxidase-conjugated goat anti-rabbit IgG or goat anti-mouse IgG or rabbit anti-goat IgG secondary antibodies (1 : 1000, Santa Cruz) for 1 h at room temperature. After washing with TBST, signals were detected using ECL plus chemiluminescence kit on X-ray film (Millipore Corporation, Billerica, USA).

U87 glioblastoma cells [4] = assay: Flow cytometry analysis of cell cycle (PI); assay type: cell-based; settings: 24 h; for cells in G2/M phase: Mean ± SEM, n = 3, control 17.63 ± 2.06
Procedure: U87 cells were treated with 5 and 10 μM PLAB for 24 h. Following treatment, cells were harvested, washed with PBS, and fixed with 70% ethanol at 4°C for overnight. After washing twice with PBS, cells were stained with a solution containing 50 μg/mL PI and 100 μg/mL RNase A for 30 min in the dark, at room temperature. The DNA contents were analyzed by flow cytometry (Beckman Coulter, Epics XL).

[5] = system: polymeric tubulin, cyclin B1, CDK1/Cdc2 in U87 glioblastoma cells; assay: Western blot of G2/M phase cell cycle regulators; assay type: cell-based; settings: 10 μM PLAB, 3 μM colchicine, 24 h
Procedure: as §1
Briefly the cell pellet was resuspended in 0.4 mL monomeric extraction buffer (20 mM Tris-HCl, pH 6.8, 0.14 M NaCl, 1 mM MgCl2, 1 mM EGTA, 0.5% Nonidet P-40 (NP-40), 0.5 mM PMSF, and 4 μg/mL paclitaxel), centrifuge at 12,000 ×g for 10 min and supernatant was removed. The pellets containing polymeric tubulin were resuspended in WIP cell lysis reagent (BIOSS, Beijing Biosynthesis Biotechnology Co., Ltd.) for 30 min and the supernatants (polymeric tubulins) were collected by centrifugation at 12,000 ×g for 10 min. The polymeric tubulins were subjected to Western blot analysis.

U87 glioblastoma cells [6] = assay: Nuclear morphology / DNA fragmentation by Hoechst 33258 staining; assay type: cell-based; settings: 5 and 10 μM, 24 h, Hoechst 33258, dose-dependent
Procedure: After treatment with 5 and 10 μM PLAB for 24 h, U87 cells were collected by centrifugation at 1500 rpm for 5 min, washed twice with PBS and fixed with 4% paraformaldehyde at room temperature for 30 min. After centrifugation, cells were washed with PBS, stained with Hoechst 33258 (50 μg/mL) and incubated at 37°C for 30 min. At the end of incubation, cells were washed and resuspended in PBS for the observation of nuclear morphology under fluorescence microscope (Olympus 1 × 71). At the end, 100 nuclei from control and PLAB-treated groups were counted microscopically for the percentage of cleaved nuclei.

U87 glioblastoma cells [7] = assay: Live/dead assay, calcein AM and PI, flow cytometry; assay type: cell-based; settings: 24 h, read-out: viability of U87 glioblastoma cells (live/dead assay)
Procedure: Furthermore, live and dead cells were quantified using the fluorescent probes calcein AM and PI. Calcein AM is cell membrane permeable and stains only viable cells, whereas PI is cell membrane impermeable and stains only dead cells. After treatment, cells were collected, washed with phosphate buffered saline (PBS) and incubated with PBS solution containing 2 μM calcein AM and 4 μM PI in the dark for 20 min at room temperature. After washing, cells were resuspended in PBS and analyzed for the fluorescence of calcein and PI by flow cytometry (Beckman Coulter, Epics XL).

tumor in nude mice = settings: 15 mg/kg and 25 mg/kg; ref Wong et al. [14]; cited from earlier work
Kunming mice = assay: In vivo organ toxicity (liver, kidneys, body weight, serum biomarkers); set-up: species or system mouse; settings: 25 mg/kg intraperitoneally daily for 14 days
Procedure: In vivo studies were conducted on 12-14 week old Kunming mice weighing 43-45 g. The mice were maintained in a specific pathogen-free grade animal facility on a 12 h light/dark cycles at 25 ± 2°C. Mouse procedures were approved by the Experimental Animal Committee of Jilin University. Mice were divided into two groups. Group A (n = 5) administered with 50 μL DMSO intraperitoneally; Group B (n = 5) administered with PLAB (25 mg/kg body weight) in 50 μL DMSO intraperitoneally. The experiment was conducted over a period of two weeks. DMSO or drug was administered daily for 14 days, once a day. At the first and last day of the experiment, the body weight of each mouse was measured. At the end of experiment, mice were anesthetized using Pentobarbital sodium (50 mg/kg ip), blood was collected via cardiac puncture, allowed to clot for 10 min, centrifuge at 1000 ×g for 10 min at room temperature. Serum was separated and stored at -20°C until analysis. The liver and kidneys were excised and processed for hematoxylin and eosin staining followed standard procedures. The toxicological effect of PLAB on liver function was assessed by measuring the serum levels of AST, ALT and TBIL. Nephrotoxicity was determined by measuring the serum levels of BUN and Cr. These biochemical parameters were determined by an automated biochemical analyzer ([…] 7170, Japan).

IC50 (U87 glioblastoma cells [1]): 1.8 µM
SMILES: COc1cccc2c1C(=O)c1c(O)c3c(c(O)c1C2=O)C[C@@](O)(C(=O)CO)C[C@@H]3O[C@H]1C[C@H](N)[C@H](O)[C@H](C)O1 [Doxorubicin, reference compound]

SMILES: COC(=O)C1=CC[C@@]23CC[C@@H]([C@@](C)(/C=C/C=C(\C)C(=O)O)OC2=O)[C@@]3(OC(C)=O)CC1 [PLAB, Pseudolaric acid B]
apoptosis rate (U87 glioblastoma cells [2]; 5 μM, Mean ± SEM, n = 3, control 2.52 ± 0.49): 24.43 ± 1.50
apoptosis rate (U87 glioblastoma cells [2]; 10 μM PLAB with general caspase inhibitor z-VAD-fmk (20 μM)): 16.92 ± 1.30
apoptosis rate (U87 glioblastoma cells [2]; 10 μM PLAB with p53 inhibitor PFTα (20 μM)): 33.42 ± 2.85
apoptosis rate (U87 glioblastoma cells [2]; 10 μM, Mean ± SEM, n = 3, control 2.52 ± 0.49): 50.12 ± 3.42
PARP cleavage [3]: cleavage of PARP into 85 kDa protein
caspase-3 cleavage [3]: cleaved the caspase-3 into 17 kDa and 12 kDa proteins
expression of Bax [3]: increased expression of Bax
expression of Bcl-2 [3]: remarkably decreased
expression of cytochrome c in cytosol ([3]; cytosolic proteins): increased the expression of cytochrome c in cytosol
expression of p53 ([3]; dose-dependent): markedly increased the expression of p53
AIF nuclear translocation ([3]; nuclear proteins): increased the expression of AIF in nucleus dose-dependently
cells in G2/M phase (U87 glioblastoma cells [4]; 5 μM): 42.25 ± 2.95
cells in G2/M phase (U87 glioblastoma cells [4]; 10 μM): 67.32 ± 1.83
effect of caspase inhibitor on PLAB-induced mitotic arrest (U87 glioblastoma cells [4]; PLAB with z-VAD-fmk (20 μM)): did not prevent mitotic arrest
expression of Cdk1 (Cdc2) [5]: no change in the expression of Cdk1 (Cdc2)
expression of cyclin B1 [5]: increased the expression of cyclin B1
expression of polymeric tubulin (tubulin polymerization) [5]: downregulated polymeric tubulin
inhibition at 100 µM (U87 glioblastoma cells [1]; 100 μM, read-out: inhibition rate): > 85%
IC50 (U87 glioblastoma cells [1]): ~10 µM
nuclear morphological changes (U87 glioblastoma cells [6]): induced obvious nuclear morphological changes including nuclear shrinkage and DNA fragmentation
viability at 5 µM (U87 glioblastoma cells [7]): 74.7 ± 1.83%
viability at 10 µM (U87 glioblastoma cells [7]): 56.9 ± 3.47%
growth of tumor in nude mice (tumor in nude mice): significantly inhibited the growth of tumor
toxicity / body weight loss in nude mice (tumor in nude mice): without any sign of toxicity or body weight loss
histopathological changes in liver and kidneys (Kunming mice; hematoxylin and eosin staining): No obvious morphological changes
TBIL, serum (Kunming mice; n = 5, Mean ± SEM, control 1.0 ± 0.12, n.s.): 1.2 ± 0.26 n.s. μmol/L
BUN, serum (Kunming mice; n = 5, Mean ± SEM, control 10.94 ± 3.01, n.s.): 9.45 ± 2.53 n.s. mmol/L
Cr, serum (Kunming mice; n = 5, Mean ± SEM, control 27.4 ± 2.17, n.s.): 36.5 ± 1.99 n.s. μmol/L
ALT, serum (Kunming mice; n = 5, Mean ± SEM, control 47.30 ± 3.70, n.s.): 55.45 ± 4.35 n.s. U/L
AST, serum (Kunming mice; n = 5, Mean ± SEM, control 79 ± 5.50, n.s.): 87.66 ± 4.17 n.s. U/L
change in body weight of mice (Kunming mice; versus control group): No obvious change in body weight
